Reference: US20260091082A1, “CYCLIC PEPTIDE DERIVATIVE COMPOSITION FOR TREATING OR PREVENTING EYE DISEASE” (DKS Co. Ltd., priority 2022, published 2026)
Values joined by “and” are separate entries in the source; they are usually repeats but may differ in a detail not shown here. Equal values may be shown once.

Tested on: anterior chamber aqueous humor pressure load rat model
Assay: Retinal thickness (IPL, INL, ONL) in retinal damage model induced by anterior chamber aqueous humor pressure load
Type: in vivo, Rat; Slc: SD
Conditions: for Thickness of INL (μm) / Thickness of IPL (μm) / Thickness of ONL (μm): 10 mg/mL intravenous (1 mL/kg once) about 30 minutes before ischemic load (test group 4), 14 days after model creation, mean ± S.E., 10 animals
Procedure: • Name: Compound 9 • Source: Synthesized in the above Examples • Used amount: 0.4 mL (50 mg/mL solution) • Storage conditions: Freezing, light shielding
Method for preparing test substance (1 mg/mL): A high concentration solution prepared at 50 mg/mL was diluted 50 times with a medium to prepare a 1 mg/mL administration solution.
• Name: MK-801 • Distributor: SIGMA-ALDRICH • Use amount: 0.0501 g • Storage condition: refrigerated (2° C. to 8° C.)
Method for preparing positive control substance (10 mg/mL): 0.0501 g was weighed out and made up to a total volume of 5 mL with a control substance (physiological saline).
• Species and strains: Rat; Slc: SD • Number of animals on arrival and sex: 50 males • Age in weeks at arrival: 6 weeks old • Body weight range at arrival: 147.2 to 170.0 g • Source: Japan SLC, Inc.
Grouping was performed two days before the first creation of the retinal damage model induced by an anterior chamber aqueous humor pressure load. Using the daily body weight as an index, stratified random allocation was performed using SAS (Ver. 9.3, SAS Institute Japan Ltd.) and EXSUS (Ver. 8.0, CAC Croit Corporation) so that an average value of the body weights of each group was approximately uniform.
• Administration route: Eyedrop administration, intravenous administration • Administration method (eyedrop): Eyedrop administration was performed on a treated eye (right eye) of a rat using a micropipette 4 times a day (at intervals of 1.5 hours or more). • Administration method (intravenous): The amount of administration solution, calculated from the body weight on the day of administration, was administered from the tail vein using a syringe and an injection needle about 30 minutes before ischemic load. • Time of administration: Administration was performed according to the following schedule.
1. 10 mg/kg xylazine hydrochloride was intramuscularly administered on the model creation day (day 0). A rat was placed in an anesthesia box and subjected to general anesthesia with isoflurane (5%, oxygen:nitrous oxide=1:3). When anesthesia was effective, the rat was taken out of the anesthesia box, an inhalation anesthetic mask was worn, and anesthesia was maintained with isoflurane (1% to 5%, oxygen nitrous oxide=1:3).
2. The body temperature was maintained at 37° C. with a warming mat, and a mydrin P ophthalmic solution was instilled in the right eye (treated eye) of the rat to dilate the pupil, then the cravit ophthalmic solution 1.5% (Santen Pharmaceutical Co., Ltd.) was instilled.
3. A bottle of an IV bag containing physiological saline was previously suspended so that a water surface was 155 cm (100 mmHg or more) higher than the eye of the rat. The IV bag was connected to a pediatric infusion set (Terumo Corporation), a 27 G injection needle thereof was inserted into and fixed to the anterior chamber while slightly dripping the liquid from a needle tip. The model was created in the light phase (6:00 to 18:00) in consideration of the diurnal variation of the intraocular pressure.
4. After the needle was inserted into the anterior chamber, pressure (100 mmHg or more) was loaded and maintained in the anterior chamber by associating the reflux system.
5. After an ischemic load for 45 minutes, the injection needle and the like were removed, the inhalation anesthetic mask was removed, and the rat was sufficiently woken up under a warming mat, and then returned to the cage.
6. For 2 days after surgery, 10 mg/kg xylazine hydrochloride was intramuscularly administered as an analgesic for the purpose of alleviating the pain after the treatment.
1. Fourteen days after model creation, general anesthesia was performed with isoflurane (5%, oxygen:nitrous oxide=1:3), euthanasia was then performed by exsanguination, a suture was placed as a marker at the 12 o'clock position of the ocular conjunctiva, and eyeball enucleation was performed.
2. […]

[1] = 10 mg/mL intravenous, right eye, 600 μm from optic disk, mean per animal
[2] = 10 mg/mL intravenous, right eye, 900 μm from optic disk, individual measurements per animal
[3] = 10 mg/mL intravenous, right eye, 900 μm from optic disk, mean per animal
[4] = MK-801, 10 mg/mL intravenous, right eye, individual animals 401-410
[5] = test group 4 (positive control, intravenous)

## C[C@]12N[C@H](Cc3ccccc31)c1ccccc12 [MK-801, reference compound]
10 mg/mL intravenous, right eye, 600 μm from optic disk, individual measurements per animal
  Thickness of IPL (μm), Distance from Optic Disk 600 μm: 51.638 μm and 52.865 μm and 43.668 μm and 44.847 μm and 43.645 μm and 46.040 μm and 48.131 μm and 48.555 μm and 40.323 μm and 42.059 μm and 40.708 μm and 38.245 μm and 23.016 μm and 30.373 μm and 47.349 μm and 49.055 μm and 51.482 μm and 47.356 μm and 46.081 μm and 48.016 μm and 49.876 μm and 42.369 μm and 44.364 μm and 47.408 μm and 44.018 μm and 42.681 μm and 28.572 μm and 45.620 μm and 44.033 μm and 47.914 μm
[1]
  Thickness of INL (μm), Distance from Optic Disk 600 μm, Mean: 37.378 μm and 28.006 μm and 30.469 μm and 44.484 μm and 31.392 μm and 28.027 μm and 18.807 μm and 31.969 μm and 25.534 μm and 35.604 μm
  Thickness of IPL (μm), Distance from Optic Disk 600 μm, Mean: 51.460 μm and 43.628 μm and 44.683 μm and 48.031 μm and 42.133 μm and 40.545 μm and 27.320 μm and 47.341 μm and 47.624 μm and 47.337 μm
[2]
  Thickness of INL (μm), Distance from Optic Disk 900 μm: 38.448 μm and 33.242 μm and 40.306 μm and 28.655 μm and 32.584 μm and 30.110 μm and 27.670 μm and 26.653 μm and 27.205 μm and 46.278 μm and 47.196 μm and 49.419 μm and 26.256 μm and 28.272 μm and 28.572 μm and 28.638 μm and 29.653 μm and 28.909 μm and 18.887 μm and 19.638 μm and 20.068 μm and 28.079 μm and 29.083 μm and 31.101 μm and 27.776 μm and 27.037 μm and 27.422 μm and 33.221 μm and 42.252 μm and 40.931 μm
  Thickness of IPL (μm), Distance from Optic Disk 900 μm: 53.305 μm and 54.992 μm and 50.505 μm and 49.780 μm and 48.950 μm and 49.327 μm and 45.307 μm and 46.968 μm and 47.454 μm and 59.185 μm and 57.507 μm and 59.952 μm and 47.370 μm and 46.144 μm and 43.062 μm and 44.289 μm and 45.534 μm and 44.647 μm and 26.506 μm and 30.220 μm and 35.348 μm and 47.148 μm and 37.774 μm and 39.021 μm and 47.795 μm and 46.694 μm and 44.145 μm and 52.722 μm and 49.687 μm and 46.942 μm
[3]
  Thickness of INL (μm), Distance from Optic Disk 900 μm, Mean: 37.332 μm and 30.450 μm and 27.176 μm and 47.631 μm and 27.700 μm and 29.067 μm and 19.531 μm and 29.421 μm and 27.412 μm and 38.801 μm
  Thickness of IPL (μm), Distance from Optic Disk 900 μm, Mean: 52.934 μm and 49.352 μm and 46.576 μm and 58.881 μm and 45.525 μm and 44.823 μm and 30.691 μm and 41.314 μm and 46.211 μm and 49.784 μm
300 μm from optic disk
  Thickness of INL (μm): 28.96±1.66 μm
  Thickness of IPL (μm): 38.05±1.38 μm
  Thickness of ONL (μm): 42.08±1.66 μm
600 μm from optic disk
  Thickness of INL (μm): 31.17±2.21 μm
  Thickness of IPL (μm): 44.01±2.11 μm
  Thickness of ONL (μm): 45.28±1.75 μm
900 μm from optic disk
  Thickness of INL (μm): 31.45±2.48 μm
  Thickness of IPL (μm): 46.61±2.34 μm
  Thickness of ONL (μm): 45.02±1.52 μm
[4]
  Thickness of ONL, distance from optic disk 300 μm (single measurement): 49.987 μm and 47.894 μm and 44.120 μm and 44.371 μm and 45.163 μm and 41.953 μm (2×) and 41.468 μm and 43.326 μm and 44.787 μm and 50.806 μm and 50.609 μm and 36.032 μm and 35.996 μm and 37.658 μm and 33.339 μm and 36.442 μm and 39.921 μm and 32.751 μm and 35.889 μm and 35.090 μm and 45.922 μm and 43.490 μm and 44.532 μm and 39.787 μm and 38.794 μm and 36.469 μm and 48.975 μm and 47.935 μm and 47.053 μm
  Thickness of ONL, distance from optic disk 600 μm (single measurement): 54.862 μm and 55.200 μm and 39.132 μm and 42.030 μm and 46.694 μm and 48.910 μm and 53.036 μm and 51.036 μm and 37.502 μm and 37.761 μm and 41.216 μm and 41.515 μm and 39.682 μm and 37.237 μm and 46.859 μm and 44.945 μm and 44.217 μm and 44.145 μm and 50.162 μm and 48.259 μm and 48.902 μm and 41.131 μm and 49.194 μm and 53.714 μm and 39.721 μm and 42.784 μm and 37.125 μm and 46.818 μm and 44.498 μm and 50.125 μm
  Thickness of ONL, distance from optic disk 900 μm (single measurement): 50.646 μm and 51.429 μm and 55.123 μm and 43.100 μm and 44.611 μm and 41.813 μm and 43.865 μm and 45.150 μm and 42.936 μm and 50.620 μm and 52.065 μm and 51.575 μm and 38.927 μm and 44.018 μm and 42.314 μm and 45.648 μm and 44.179 μm and 43.513 μm and 35.404 μm and 34.065 μm and 37.439 μm and 46.755 μm and 42.208 μm and 44.217 μm and 44.685 μm and 43.759 μm and 46.364 μm and 47.690 μm and 47.148 μm and 49.406 μm
[5]
  Inner nuclear layer (INL) thickness compared with the control group, in words: no obvious change was observed
  Outer nuclear layer (ONL) thickness compared with the control group, in words: statistically significant differences were observed at measurement sites between 600 to 900 μm from the optic disk
Test group 4 (positive control, intravenous), 300 to 900 μm from the optic disk
  Inner plexiform layer (IPL) thickness compared with the control group, in words: statistically significant suppression of retinal damage was shown at all measurement sites
